Measured values published in patent US8258295B2, “Triazine derivatives, compositions containing such derivatives, and methods of treatment of cancer and autoimmune diseases using such derivatives” (Prometic Biosciences Inc., priority 2007, dated 2012).
Read-outs that look alike come from different tables or passages of the source.

Columns and labels:
[1] = molecular target: TNFα (Homo sapiens, UniProt P01375); assay: TNFα-induced apoptosis in WEHI-13VAR cell line; type: cell-based; details: for inhibition at 10 µM: 1 × 10^−5 M; for inhibition at 20 µM: 2 × 10^−5 M; for inhibition at 40 µM: 4 × 10^−5 M; for inhibition at 5 µM: 5 × 10^−6 M
TNFα, sequence (P01375 77-233 limits assumed, species assumed): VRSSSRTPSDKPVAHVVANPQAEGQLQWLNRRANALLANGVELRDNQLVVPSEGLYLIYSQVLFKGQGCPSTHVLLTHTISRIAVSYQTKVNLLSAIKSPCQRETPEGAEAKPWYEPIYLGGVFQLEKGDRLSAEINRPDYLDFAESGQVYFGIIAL
Method: Effect of compounds on TNFα-induced apoptosis was measured by a standard biological assay using WEHI-13VAR cells. These cells undergo apoptosis when they are incubated in the presence of TNFα and actinomycin D. 2×10^4 WEHI-13VAR cells were incubated in RPMI supplemented with 1% sodium pyruvate and 10% FBS, overnight at 37° C. for cell adherence. The cells were then cultured in the presence of 1 μg/ml of actimomycin D ([…]) and 0.04 nM TNFα with or without compounds at 37° C. After 16 hr to 24 hr, 50 μl of a solution of 2 mg/ml of MIT was added to each well and the plate was then incubated for 4 hr at 37° C. Only viable cells metabolize MTT to form formazan salt, which is detectable by the measurement of absorbance at 570 nm. After the incubation, the plate was inverted to remove medium and dead cells. 150 μDMSO was added to each well to stop the reaction and solubilize the formazan salt. Optical density was read on a Bio-Tek EL 800 UV microplate reader. A decrease in the optical density is direct evidence of cell apoptosis induced by TNFα. Compounds were also compared to the activity of an anti-TNFα neutralizing antibody.

[2] = tested on: P815 murine mastocytoma cell; assay: MTT cytotoxicity on P815; type: cell-based; details: Mus musculus
Method: (§1) This assay was performed to determine the effect of compounds of the present invention on cell cytotoxicity. Cells were incubated in presence or absence of compounds in their respective conditioned media. After 24 hr or 72 hr incubation, 50 μl of 3-(4,5-dimethyl-2-thiazyl)-2,5-diphenyl-2H-tetrazolium bromide (MTT; 2 mg/ml) was added and further incubated for 4 hr. The supernatant was discarded and 100 μl of dimethylsulfoxide (DMSO) was added. Absorbance was read at 570 nm with a TecanSunrise ELISA plate reader. The control group consisted of cells without compounds and is referred to as 100% of viable cells. IC50 was determined using Prism software.
(§2) All compounds have weak effect on cell cytotoxicity. The predictive utility of cell based cytotoxicity assays to assess the potential in vivo anticancer activity of compounds with selected cancer cell lines is well established in the art and the use of whole cells, instead of isolated protein receptors or enzymes, provides a more reliable determination of activity. See, for example, Paull et al. (J. Nat'l Cancer Inst. 81:1088-1092, 1989); Monks et al. (J. Nat'l Cancer Inst. 83:757-766, 1991); Bandes et al. (J. Nat'l Cancer Inst. 86:770-775, 1994); and Kamate et al. (Int'l J. Cancer 100:571-579, 2002).

[3] = tested on: PC-3 human prostate carcinoma cell; assay: MTT cytotoxicity on PC-3; type: cell-based
Method: as §1, §2

[4] = tested on: oxazolone-induced delayed-type hypersensitivity (DTH); assay: Oxazolone-induced delayed-type hypersensitivity (DTH) in mice; type: in vivo
Method: Compounds were tested for their ability to treat oxazolone-induced delayed-type hypersensitivity (DTH) in mice. […] On day 0, day 1, and day 2, mice were treated by intravenous (IV) or oral (PO) administrations of the vehicle (control) or methotrexate (MTX; positive control/IV) or hydrocortisone (positive control/PO) or the compound at concentration lower than or equal to 50 mg/kg or as specified. Mice were challenged with an application of 50 μl of oxazolone on the surface of the right ear (first challenge, day 3; second challenge, day 10). Ear thickness was measured on day 4 to day 7, and on day 11 to 14. Redness and crust formation was also observed. Mice were sacrificed on day 14. TDTH (CD4) cells play an important role in regulating the intensity of the DTH response. Compounds may exert an inhibitory influence on the DTH response through its inhibition of T-cell activation and DNA, RNA, and/or protein synthesis.

[5] = tested on: adjuvant-induced arthritis (AIA); assay: Freund's adjuvant-induced arthritis (AIA) in Lewis rats; type: in vivo; details: female Lewis rats, oral administration; FIG. 18
Method: AIA was induced in female Lewis rats by the injection of lyophilized Mycobacterium butyricum suspended in mineral oil into the footpad. The development of arthritis was monitored over a 3-week period post-adjuvant injection. Inflammation peaks at day 3 following the adjuvant administration. Immune activation appears around day 10 to day 16. Compounds were orally administered from day −3 to day 21. Body weight was recorded. The arthritis index, which is a measure of inflammation (edema), redness, and stiffness of the articulations, was used to monitor the development of the disease. The degree of arthritis was determined by measuring two perpendicular diameters of the ankles in the mediolateral and dorsoventral planes using a caliper. Joint circumference in millimeters is then calculated using a geometric formula.

[6] = tested on: LPS-induced inflammation in the rat air-pouch model; assay: LPS-induced inflammation in rat air-pouch model; type: in vivo, rats; details: IV, pouch exudate
Source text: LPS-induced inflammation in the rat air-pouch model is believed to mimic the pathological process occurring in joint diseases such as arthritis. This is because the connective tissues formed along the air pouch are similar to those found in chronic joint diseases. LPS-induced inflammation and chronic joint diseases share other features, including markedly elevated PGE2, neutrophil infiltration, cytokine formation, and tissue damage.
An air cavity was produced at day −6 by subcutaneous injection of 20 ml of sterile air into the intrascapular area of the back of male Lewis rats (175 to 200 g). An additional 10 ml of air was injected into the cavity at day −3 to keep the space open. At day 0, compounds were administered intravenously and one hour later lipopolysaccharide (LPS: 2.5 ml of 2 μg/ml in PBS) was injected into the pouch to produce an inflammatory reaction. […] The pouch fluid was collected. The volume of exudates was measured and the number of leukocytes present in the exudates was determined with a Coulter counter. The differential count was determined by Wright-Giemsa staining. PGE2, LTB4, MCP, and TNFα were determined in the pouch exudates by specific ELISAs.

[7] = tested on: HUVEC (human umbilical vein endothelial cell); assay: MTT cytotoxicity on HUVEC; type: cell-based
Method: as §1, §2

[8] = tested on: NHDF (normal human dermal fibroblast); assay: MTT cytotoxicity on NHDF; type: cell-based
Method: as §1, §2

[9] = 24 hr culture, read-out: IC50 of 24-hour culture P815
[10] = 72 hr culture, read-out: IC50 of 72-hour culture P815
[11] = 24 hr culture, read-out: IC50 of 24-hour culture PC-3
[12] = 72 hr culture, read-out: IC50 of 72-hour culture PC-3

Row | SMILES | inhibition at 10 µM [1] [%] | inhibition at 20 µM [1] [%] | inhibition at 40 µM [1] [%] | inhibition at 5 µM [1] [%] | IC50 [2, 9] [µM] | IC50 [2, 10] [µM] | IC50 [3, 11] [µM] | IC50 [3, 12] [µM] | further results
1 | NCCCCCNc1nc(NCCc2ccc(C(N)=O)cc2)nc(Nc2cccc(F)c2)n1 [Compound VI] | 54.8 | 74.1 | 89.5 | 28.2 | – | – | – | – | –
2 | NCCCCCNc1nc(NCCc2ccc(S(N)(=O)=O)cc2)nc(Nc2ccc(F)cc2)n1 [Compound VII] | 65.8 | 99.9 | 118 | 30 | 12.6 | 4 | 17.7 | 14.1 | –
3 | NCCCCCNc1nc(Nc2ccc(S(N)(=O)=O)cc2)nc(Nc2cccc(F)c2)n1 [Compound VIII] | 35.6 | 48.1 | 55.6 | 17 | 10.9 | 2.9 | 31 | 5.2 | –
4 | CN(C)S(=O)(=O)c1ccc(CCNc2nc(NCCCCCN)nc(Nc3ccc(F)cc3)n2)cc1 [Compound X] | 44.4 | 79.9 | 53.9 | 19.4 | – | – | – | – | inflammation (ear thickness) after DTH ([4]; IV 5 mg/kg, first challenge of oxazolone): significant reduction of the inflammation
5 | CN(C)S(=O)(=O)c1ccc(CCNc2nc(NCCCCCN)nc(Nc3cccc(F)c3)n2)cc1 [Compound III] | 52 | 89.7 | – | 20.4 | 13.6 | 5.5 | 30.1 | 27.6 | inflammation (ear thickness) after DTH ([4]; oral 50 mg/kg, first challenge of oxazolone): significant reduction of the inflammation; inflammation (ear thickness) after DTH ([4]; oral 50 mg/kg, second challenge of oxazolone): significant reduction of the inflammation
6 | NCCCCCNc1nc(NCC(O)c2ccc(O)cc2)nc(Nc2ccc(F)cc2)n1 (stereo not shown) [Compound XI] | 14.6 | 23.7 | 35 | 9.9 | – | – | – | – | inflammation (ear thickness) after DTH ([4]; IV 25 mg/kg, first challenge of oxazolone): significant reduction of the inflammation
7 | COc1ccc2c(c1)c(CC(=O)O)c(C)n2C(=O)c1ccc(Cl)cc1 [indomethacin, reference compound] | – | – | – | – | – | – | – | – | severity of arthritis (inflammatory index) [5]: significant reduction in the severity of arthritis; PGE2 production induced by LPS ([6]; twelve hours after induction, FIG. 21B): significant inhibition; TNFα production induced by LPS ([6]; twelve hours post-LPS induction, FIG. 21A): weak inhibition; TNFα production induced by LPS ([6]; two hours after induction, FIG. 20A): increase the concentration of TNFα; PGE2 production induced by LPS ([6]; two hours after induction, FIG. 20B): significant inhibition; LTB4 production induced by LPS ([6]; two hours after induction, FIG. 20C): did not affect the production of LTB4; MCP-1 production induced by LPS ([6]; two hours after induction, FIG. 20D): significant increase
8 | NCCCCCNc1nc(NCCc2ccc(N)cc2)nc(Nc2ccc(F)cc2)n1 [Compound IV] | 13.1 | 31.6 | 47.2 | 3.7 | 33 | – | 56.6 | 51.9 | inflammation (ear thickness) after DTH ([4]; oral 50 mg/kg, FIG. 15): significant reduction of the inflammation; IC50 ([7]; 24 hr culture, read-out: IC50 of 24-hour culture HUVEC): 51.3 µM; IC50 ([7]; 72 hr culture, read-out: IC50 of 72-hour culture HUVEC): > 100 µM; IC50 ([8]; 24 hr culture, read-out: IC50 of 24-hour culture NHDF): 82.1 µM; IC50 ([8]; 72 hr culture, read-out: IC50 of 72-hour culture NHDF): 42.5 µM
9 | NCCCCCNc1nc(Nc2cccc(F)c2)nc(-c2cccc(F)c2)n1 [XII] | – | – | – | – | – | 21.7 | – | 9 | –
10 | NCCCCNc1nc(NCCc2ccc(S(N)(=O)=O)cc2)nc(Nc2cccc(F)c2)n1 [Compound IX] | 29.8 | 46.7 | 65.5 | 13.2 | – | – | – | – | –
